Data: patent EP0583821A1, “Atriopeptins, guanylate cyclase activators, and phosphodiesterase inhibitors as treatment for glaucoma, hydrocephalus and cerebral edema (cranial fluid volume dysfunction)” (THE GENERAL HOSPITAL CORPORATION, priority 1987, dated 1988)

What was measured:
rabbits = assay: Peripheral blood pressure after intravenous injection; format: in vivo, rabbit; conditions: intravenous injection of similar doses
albino rabbits = assay: Intraocular pressure after unilateral intravitreal injection; format: in vivo, rabbit
Procedure: The measurement of intraocular pressure (IOP), was performed using procedures similar to those described in Nathanson, Brit. J. Pharmacol., 73:97 (1981) and Nathanson, Current Eye Res., 4:191 (1985). Briefly, male (3-5 kg), New Zealand white rabbits were housed under standard conditions and exposed to a 12 hr light-dark cycle. IOP was measured with a Perkins applanation tonometer after topical anesthesia with 0.4% benoxinate (and 0.25% sodium fluorescein). The tonometer had been calibrated previously by connecting the anterior chamber of enucleated rabbit eyes to a manometer (and reservoir) and taking tonometer readings at different pressures. A number of preliminary IOP readings were made in order to accommodate the animals to the measurement procedure. Readings were then taken just prior to drug or vehicle injection and at 3, 9, 20, 27, 44, 51, 72, and 144 hours post-injection.
Following topical anesthesia with 0.4% benoxinate, rabbits received rat atrial natriuretic peptide 1-28 (rANP) via a 10 microliter, intravitreal injection, through a 30g 1/2" needle, the tip of which was positioned at the approximate center of the eye. Drug was dissolved in a solution of artificial aqueous humor containing (in mmol/liter): NaCl 130, KCl 2.7, […] 18.3, MgCl₂ 1.33, CaCl₂ 1.5, Glucose 10, HEPES 20, and L-ascorbic acid, 2.5. The contralateral eye received a 10 microliter injection of vehicle alone. In order to evaluate the possible effects of intravitreal injection, per se, on IOP, additional rabbits received a 10 microliter intravitreal injection of vehicle in one eye only.
The contralateral eye received intravitreal injection of vehicle alone. Over a period of 9 hours, the ipsilateral eyes underwent a marked decline in pressure of about 5mm (Hg). This degree of hypotension persisted until about 48 hours post-injection and then underwent a slow recovery over the following four days. The decrease in pressure, compared with pre-injection IOP, was statistically significant at all time points from 3 to 72 hours post-injection. Values shown are mean ± SEM. Filled circles represent the IOP in the ipsilateral eye; open circles represent the IOP in the contralateral eye. *(p < .05); **(p < .01), for paired Students T-test relative to preinjection pressure (time 0). […] During the entire period, no affect on pupillary diameter of either the ipsilateral or contralateral eye was noted.
This contralateral decrease was statistically significant (p <.05 vs. pre-injection IOP) at 20 and 44 hours following injection. […]

Substance: Ser-Leu-Arg-Arg-atriopeptin III (APIII) [rANP 1-28]
- peripheral blood pressure (rabbits): no change
- persistence of hypotension post-injection (albino rabbits; 0.3 nmoles intravitreal): about 48 hours
- IOP in the contralateral, vehicle-injected eye (albino rabbits; 0.3 nmoles intravitreal in ipsilateral eye): also showed a decrease
- decline in intraocular pressure, ipsilateral eye (albino rabbits; 0.3 nmoles intravitreal, eight albino rabbits, over a period of 9 hours): about 5 mm (Hg)
- effect on pupillary diameter (albino rabbits; ipsilateral or contralateral eye, entire period): no affect
